This passage reports solubility results from patent publication US20090203632A1, “COMPOSITIONS AND METHODS FOR TREATING CONTRACTURE” (Angiotech International AG, priority 2004, published 2009).

The nature of this data set: Water solubility of 5-FU. The class given is physicochemical. The following applies: read-out: measured water solubility. On the procedure: A hyaluronic acid formulation that includes 5-FU can be prepared as described. 5-FU is combined with 10 mg hyaluronic acid (1 MDa), 1 ml sterile water. The product is stirred until a uniform gel solution, free of particular polymer or drug is achieved. Alternatively, the HA and water may be combined, stirred and autoclaved to homogenize the solution. After dissolving the polymer, the 5-FU may be added with stirring. NaCl is added (as required for isotonicity), and the pH is adjusted to between 6-8 with NaOH and HCl as required. […] The formulation may be injected to the site of treatment (e.g., into a joint) in a volume appropriate to that site. For example, a knee joint might receive a 2 ml injection, whereas a finger joint or tendon sheath may receive substantially less.

Structures are written as SMILES.

Regarding `O=c1[nH]cc(F)c(=O)[nH]1` [Formula 5-FU, 5-Fluorouracil], the solubility stood at 12.9 mg/mL.
